Where two headings read alike, the source gives them in different places.
Assays:
HDACs = HDACs signaling by Western blot (H3K9Ac, H4K9Ac, Acetyl-tubulin); assay type: cell-based; conditions: BCBL-1 cells, 48 h, Western blot
BCP-1 = assay: WST-1 cytotoxicity assay, BCP-1 (KSHV+ PEL); assay type: cell-based; conditions: BCP-1, 72 h
Text: (§1) Fig 2 Identification of newly synthesized dual inhibitors with anti-PEL activities. (A) The binding mode of (+)-JQ1 with BRD4^BD1 (PDB: 3MXF). BRD4^BD1 is shown as hot pink cartoon with gray surface. Asn140 in BRD4^BD1 is shown as sticks and colored in following pattern: atom C hot pink, atom N dark blue, and atom O yellow. (+)-JQ1 is shown as sticks and colored in following patten: atom C hot pink, atom N dark blue, atom O yellow, atom S golden, and atom Cl green. The solvent exposed region (SEG) of (+)-JQ1 are indicated with white arrow. (B) The binding modes of SAHA and entinostat with HDAC2 (PDB: 3MAX). HDAC2 is shown as blue cartoon with gray surface. Asp181 and His183 in HDAC2 are shown as sticks and colored in following pattern: atom C blue, atom N dark blue, and atom O yellow. The catalytic zinc ion in the active site of HDAC2 is shown as black sphere. SAHA is shown as sticks and colored in following pattern: atom C green, atom N dark blue, and atom O yellow. Entinostat is shown as sticks and colored in following pattern: atom C hot pink, atom N dark blue, and atom O yellow. The SEG of SAHA or entinostat is indicated with white arrow. Hydrogen bonds (H-bonds) are presented by red dash lines. (C) The HDACs/BRD4 dual inhibitors 002-011 were designed by fusing the key pharmacophores of (+)-JQ1 (pink) and HDAC inhibitors (blue), SAHA or entinostat, via various chemical linkers (green). (D) Anti-PEL activities of the new compounds. Five KSHV positive and two KSHV negative lymphoma cell lines were treated with indicated concentrations of these compounds for 72 h. Then the cytotoxicity was determined using the WST-1 assay. (+)-JQ1, SAHA and entinostat were used for the comparisons as single inhibitors. The CC50 for each compound was calculated using GraphPad Prism 5.0 software. Error bars represent S.D. for 3 independent experiments.
(§2) Fig 4 Identification of anti-PEL activities for compound 009 stereoisomers. (A) The chemical structures of anti-HDACs/BRD4 bifunctional molecules 009P1 and 009P2, as well as anti-HDACs or anti-BRD4 mono-functional molecules 009N1, 009N2, 009N3, and 009N4. (B-C) Four KSHV+ PEL cell lines were treated with indicated concentrations of 009P1, 009P2 or 009N1-N4 for 72 h, then the cytotoxicity was determined using the WST-1 assay. (D-I) BCBL-1 cells were treated with these compounds at the respective 2× CC50 for 24 h, then cell cycle (D-F) and apoptosis (G-I) were measured by flow cytometry analysis. Error bars represent S.D. for 3 independent experiments, ** = p<0.01 (vs vehicle control).
(§3) The cell viability following treatment with compounds was assessed by the WST-1 assay (Roche, Indianapolis, Indiana, USA) according to the manufacturer’s protocol as described previously. The absorbance signal was measured using a microplate reader (Biotek Synergy 2). The 50% cytotoxic concentration (CC50) for each compound was calculated from these dose-response curves using the software GraphPad Prism v5.0. Data were normalized as the fold change compared to the DMSO control.

HUVEC = assay: WST-1 cytotoxicity on primary cells HUVEC; assay type: cell-based, human
Method: as §3
Supplementary file ppat.1011089.s006.tif: S5 Fig Cytotoxicity of tested compounds on HUVEC. The primary cells HUVEC were treated with indicated concentrations of compounds for 72 h, then cell viability was assessed using the WST-1 assay. The CC50 for each compound was calculated from the dose-response curves using Graphpad Prism 5.0 software. Data was normalized as the fold change compared to the DMSO control. (TIF) Click here for additional data file.

BCBL-1 cells [1] = assay: Cell death regulatory proteins by Western blot; assay type: cell-based; conditions: 50 nM, 48 h
BCBL-1 cells [2] = assay: PEL xenograft model (BCBL-1 cells i.p.); conditions: 20 mg/kg
Method: (A) Plasma concentrations of (+)-JQ1, SAHA, or 009P1 after a single administration of 50 mg per kg body (i.p. injection) were presented as mean ± SD (n = 3 mice per time point). (B-E) NOD/SCID mice were injected i.p. with BCBL-1 cells. 72 h later, the compounds or vehicle were administered i.p. as described in the Methods, and weights were recorded weekly. At the end of the treatment period, the splenic tissues were collected from the vehicle or compound treated mice, compared and processed with the H&E and IHC staining. (F) Plasma concentrations of 009P1 after a single administration of 50 mg per kg body (oral gavage) were presented as mean ± SD (n = 3 mice per time point). (G-I) NOD/SCID mice were injected i.p. with BCBL-1 cells. 72 h later, the compounds or vehicle were administered orally as described in the Methods, and weights were recorded weekly.
In all NOD/SCID mice, 6–8-week-old, male (Jackson Laboratory, Ellsworth, Maine, USA), 1 × 10^7 BCBL-1 cells in 200 μL RMPI-1640 without FBS were injected intraperitoneally and then mice were randomized into treatment groups of 6 mice as described previously. The tested compounds or vehicle was administered initially at 72 h after BCBL-1 injections, and continued once daily, 2 days per week for 3 weeks. Weights were recorded weekly as a surrogate measure of tumor progression. At the end of experiment, the spleens of mice were excised for immunoblots and immunohistochemical analyses.
Formalin-fixed, paraffin-embedded tissues were microtome-sectioned to a thickness of 4 μm and placed on electromagnetically charged slides. Immunohistochemistry was performed as described previously, and the c-Myc and H3K9Ac antibodies were purchased from Abcam. Images were collected using an Olympus BX61 microscope equipped with a high resolution DP72 camera and CellSense image capture software.

BCBL-1 cells [3] = assay: RNA-Sequencing of compound-treated vs vehicle-treated cells; assay type: cell-based, human
Method: RNA-Sequencing (RNA-Seq) of triplicate samples was performed by BGI Americas Corporation using their unique DNBSEQ sequencing technology. The completed RNA-Sequencing data was submitted to NCBI Sequence Read Archive (SRA# # PRJNA813422). Raw sequencing reads were analyzed using the RSEM software (version 1.3.0; human GRCh38 genome sequence and annotation) and gene expression was quantified as previously described. The EBSeq software was utilized to call differentially expressed genes that were statistically significant using a false discovery rate (FDR) less than 0.05. Differentially expressed genes between compounds- and vehicle-treated PEL cells were used as input for the GO enrichment analyses.

BC-1 = assay: WST-1 cytotoxicity assay, BC-1 (KSHV+ PEL); assay type: cell-based; conditions: Homo sapiens, BC1, 72 h
Text: as §1, §2, §3

KSHV [4] = assay type: cell-based
KSHV [5] = assay: Viral DNA levels in PEL cells by qPCR; assay type: cell-based
JSC-1 = assay: WST-1 cytotoxicity assay, JSC-1 (KSHV+ PEL); assay type: cell-based; conditions: 72 h
Text: as §1, §2, §3

BRD4 = BRD4 signaling by Western blot (c-Myc expression); assay type: cell-based; conditions: BCBL-1 cells, 48 h, Western blot
BCBL-1 = assay: WST-1 cytotoxicity assay, BCBL-1 (KSHV+ PEL); assay type: cell-based; conditions: BCBL1, 72 h
Text: as §1, §2, §3

[6] = WST-1 cytotoxicity assay, BJAB (KSHV negative lymphoma); assay type: cell-based; conditions: human
Text: as §1, §3

[7] = WST-1 cytotoxicity assay, BL-41 (KSHV negative lymphoma); assay type: cell-based; conditions: human
Text: as §1, §3

KSHV [8] = assay type: cell-based, human
BJAB.219 = assay: WST-1 cytotoxicity assay, BJAB.219 (KSHV-infected lymphoma); assay type: cell-based; conditions: 72 h, read-out: KSHV-infected lymphomas CC50, BJAB.219
Text: as §1
BCBL-1 and iSLK.219 cells were kindly provided by Dr. Pinghui Feng (University of Southern California). BL-41, BJAB, BCP-1, BC-1, BC-3, JSC-1, HUVEC cells were purchased from American Type Culture Collection (ATCC), and cultured as recommended by the manufacturer. For making BJAB.219 cells, BJAB cells were infected with rKSHV.219 stock by spinoculation as previously reported by centrifugation at 1500×g for 60 min [31]. Then, puromycin (10 μg/ml) was added into the medium at 72 h post-infection and the medium containing puromycin was replaced twice a week. After 6-week high concentration of puromycin selection, BJAB.219 cells were then cultured in the medium with 0.5 μg/ml puromycin.
The cell viability following treatment with compounds was assessed by the WST-1 assay (Roche, Indianapolis, Indiana, USA) according to the manufacturer’s protocol as described previously. The absorbance signal was measured using a microplate reader (Biotek Synergy 2). […]

[9] = gene expression, treated vs vehicle BCBL-1 cells

## Cc1sc2c(c1C)C(c1ccc(Cl)cc1)=N[C@@H](CC(=O)O[C@@H](C)c1ccc(C(=O)Nc3ccccc3N)cc1)c1nnc(C)n1-2 [009P2, (S)-1-(4-((2-aminophenyl)carbamoyl)phenyl)ethyl 2-((S)-4-(4-chlorophenyl)-2,3,9-trimethyl-6H-thieno[3,2-f][1,2,4]triazolo[4,3-a][1,4]diazepin-6-yl)acetate]
HDACs
  H3K9Ac, H4K9Ac and Acetyl-tubulin protein levels: increased
BCP-1; read-out: CC50, BCP-1
  CC50: 0.028 µM
HUVEC
  Cytotoxicity in primary cells HUVEC: much less cytotoxicity
BCBL-1 cells [1]
  Expression of p-RB, cleaved-caspase 3 and cleaved-PARP: strongly affected
BCBL-1 cells [2]; i.p.
  PEL tumor progression (ascites formation, spleen enlargement): dramatically suppressed PEL tumor progression
  Tumor infiltration into the spleen (H&E): only diffuse small tumor nodules
  Visible toxicity in mice (abnormal weight loss): not observed
BCBL-1 cells [2]; oral administration
  Tumor burden in mice (ascites formation, spleen enlargement): effectively repressed tumor burden
BCBL-1 cells [3]; BCBL-1, ≥ 2 fold-change and FDR < 0.05
  Genes differentially expressed between 009P1- and 009P2-treated PEL cells: 715 genes
BCBL-1 cells [3]; [9]
  Ratio, ARC: 17.91
  Ratio, ARRDC3: 41.32
  Ratio, ATF3: 22.98
  Ratio, CCDC169-SOHLH2: 0.1511
  Ratio, CD28: 0.1264
  Ratio, CD44: 0.1695
  Ratio, CFAP58: 0.2474
  Ratio, CHAC1: 9.244
  Ratio, CSF1R: 42.35
  Ratio, DDIT3: 16.53
  Ratio, DDIT4: 24.97
  Ratio, FOS: 77
  Ratio, IFNG: 0.1337
  Ratio, IRF7: 28.87
  Ratio, LGALS9B: 0.03508
  Ratio, MCM5: 0.1
  Ratio, PRKCB: 0.03195
  Ratio, RP11-707M3.3: 0.2332
  Ratio, SOCS3: 41.85
  Ratio, SPINT1: 0.1311
BC-1; read-out: CC50, BC-1
  CC50: 0.0055 µM
KSHV [4]
  Expression of viral genes (LANA, RTA, ORF26): significantly increased
KSHV [5]
  Viral DNA levels: slightly increased
JSC-1; read-out: CC50, JSC-1
  CC50: 0.11 µM
BRD4
  c-Myc expression: decreased
BCBL-1; read-out: CC50, BCBL-1
  CC50: 0.0033 µM

## Cc1sc2c(c1C)C(c1ccc(Cl)cc1)=N[C@@H](CC(=O)OC(C)c1ccc(C(=O)Nc3ccccc3N)cc1)c1nnc(C)n1-2 (stereo partly drawn) [compound 009, 1-(4-((2-aminophenyl)carbamoyl)phenyl)ethyl 2-((S)-4-(4-chlorophenyl)-2,3,9-trimethyl-6H-thieno[3,2-f][1,2,4]triazolo[4,3-a][1,4]diazepin-6-yl)acetate]
[6]
  CC50 at 72 h: 1.32 µM
[7]
  CC50 at 72 h: 3.37 µM
BCP-1; read-out: KSHV-infected lymphomas CC50, BCP-1
  CC50: 0.12 µM
KSHV [8]
  Expression of lytic genes RTA, PF and ORF26: elevated
BC-1; read-out: KSHV-infected lymphomas CC50, BC-1
  CC50: 0.096 µM
BJAB.219
  CC50: 0.23 µM
JSC-1; read-out: KSHV-infected lymphomas CC50, JSC-1
  CC50: 0.084 µM
BCBL-1; read-out: KSHV-infected lymphomas CC50, BCBL-1
  CC50: 0.02 µM
